Molecules are shown by their SMILES. Read-outs that look alike come from different tables or passages of the source.

This note sets out measurements from patent US8785488B2 (Exelixis Patent Company LLC, priority 2009, dated 2014).

This assay deals with T1, human TGR5 (h-TGR5) (Homo sapiens, UniProt Q8TDU6).
T1 construct: expressed in transfected cells
T1 sequence (Q8TDU6 1-330): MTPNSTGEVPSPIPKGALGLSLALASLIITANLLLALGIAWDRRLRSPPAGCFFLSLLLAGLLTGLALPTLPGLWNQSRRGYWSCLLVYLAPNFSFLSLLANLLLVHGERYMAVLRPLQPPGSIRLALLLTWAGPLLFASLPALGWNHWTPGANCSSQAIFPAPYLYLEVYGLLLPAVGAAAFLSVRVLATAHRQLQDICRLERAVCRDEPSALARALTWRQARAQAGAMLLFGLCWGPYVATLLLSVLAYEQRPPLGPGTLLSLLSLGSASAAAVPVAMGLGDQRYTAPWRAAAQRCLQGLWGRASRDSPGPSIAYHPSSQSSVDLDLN
Description: TGR5/CRE-Luciferiase Assay (HEK 293 hTGR5/CRE-Luc cells). The class given is cell-based. The gist of the method: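 HEK293 cells stably carrying hTGR5 and a CRE-luciferase reporter were exposed to serially diluted compounds (diluted in DMEM with 5% DMSO) for 6 h. Cells were then lysed in luciferase buffer, luminescence was read, and EC50 values were derived from dose-response curves.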

Setting [1] is: h-TGR5 CRE-Luc EC50, Table 1, read-out: CRE-Luc (EC50).

As a reminder, the EC50 is the concentration at which the effect is half-maximal. With `CCN(CC)CCOc1ccc(CSc2ncc(C(C)(C)c3ccc(Cl)c(Cl)c3)n2-c2ccc(F)cc2)cc1-c1nnn[nH]1` [2-({4-[({5-[1-(3,4-dichlorophenyl)-1-methylethyl]-1-(4-fluorophenyl)-1H-imidazol-2-yl}thio)methyl]-2-(1H-tetrazol-5-yl)phenyl}oxy)-N,N-diethylethanamine], the EC50 under setting [1] lay within 100 to 1000 nM.
In the case of `COc1ccc(C(C)(C)c2cnc(S(=O)(=O)CCc3ccc(F)cc3Cl)n2-c2ccc(F)cc2)cc1OC` [5-{1-[3,4-bis(methyloxy)phenyl]-1-methylethyl}-2-{[2-(2-chloro-4-fluorophenyl)ethyl]sulfonyl}-1-(4-fluorophenyl)-1H-imidazole], the EC50 under setting [1] is less than 100 nM.
On the same count and under the same terms, for `CC(Sc1ccc(F)cc1Cl)c1ncc(C(C)(C)c2ccc(Cl)c(Cl)c2)n1-c1ccc(F)cc1` (centres unmarked) [2-{1-[(2-chloro-4-fluorophenyl)thio]ethyl}-5-[1-(3,4-dichlorophenyl)-1-methylethyl]-1-(4-fluorophenyl)-1H-imidazole] the value was 1000 to 10000 nM; for `CC(C)(O)COc1ccc(C(C)(C)c2cnc(SCc3ccc(F)cc3Cl)n2-c2ccc(F)cc2)cc1Cl` [1-[(2-chloro-4-{1-[2-{[(2-chloro-4-fluorophenyl)methyl]thio}-1-(4-fluorophenyl)-1H-imidazol-5-yl]-1-methylethyl}phenyl)oxy]-2-methylpropan-2-ol], 100 to 1000 nM.
Same read-out and setting: for `COc1cc(C(C)(C)c2cnc(SCC3CCN(CCO)CC3)n2-c2ccc(F)cc2)ccc1Cl` [2-[4-({[5-{1-[4-chloro-3-(methyloxy)phenyl]-1-methylethyl}-1-(4-fluorophenyl)-1H-imidazol-2-yl]thio}methyl)piperidin-1-yl]ethanol] the value was 1000 to 10000 nM.
With `COc1ccc(C(C)(C)c2cnc(S(=O)(=O)Cc3c(F)cccc3Cl)n2-c2ccc(F)cc2)cc1OC` [5-{1-[3,4-bis(methyloxy)phenyl]-1-methylethyl}-2-{[(2-chloro-6-fluorophenyl)methyl]sulfonyl}-1-(4-fluorophenyl)-1H-imidazole], the concentration giving a half-maximal response (EC50) under setting [1] is less than 100 nM.
As for `CC(C)(c1ccc(Cl)c(Cl)c1)c1cnc(S(=O)(=O)Cc2cc(Cl)ccc2Cl)n1-c1ccc(F)cc1` [5-[1-(3,4-dichlorophenyl)-1-methylethyl]-2-{[(2,5-dichlorophenyl)methyl]sulfonyl}-1-(4-fluorophenyl)-1H-imidazole], the EC50 under setting [1] was 100 to 1000 nM.
`COc1ccc(C(C)(C)c2cnc(CNc3ccc(F)c(Cl)c3)n2-c2ccc(F)cc2)cc1OC` [N-{[5-{1-[3,4-bis(methyloxy)phenyl]-1-methylethyl}-1-(4-fluorophenyl)-1H-imidazol-2-yl]methyl}-3-chloro-4-fluoroaniline]: under setting [1], the half-maximal effective concentration (EC50) fell in the range of 100 to 1000 nM.
For the molecule `CC(C)(c1ccc(Cl)c(Cl)c1)c1cnc(COc2ccc(C(=O)O)cn2)n1-c1ccc(F)cc1` [6-[({5-[1-(3,4-dichlorophenyl)-1-methylethyl]-1-(4-fluorophenyl)-1H-imidazol-2-yl}methyl)oxy]pyridine-3-carboxylic acid], under setting [1], the 50% effective concentration (EC50) was 100 to 1000 nM.
For the molecule `CC(C)(O)c1cccc(F)c1CSc1ncc(C(C)(C)c2ccc(Cl)c(Cl)c2)n1-c1ccc(F)cc1` [2-{2-[({5-[1-(3,4-dichlorophenyl)-1-methylethyl]-1-(4-fluorophenyl)-1H-imidazol-2-yl}thio)methyl]-3-fluorophenyl}propan-2-ol], the EC50 under setting [1] was in the range of 100 to 1000 nM.
Same read-out and setting: as for `CC(C)(c1ccc(Cl)c(Cl)c1)c1cnc(SCc2ccc(F)cc2Cl)n1-c1ccc(F)c(F)c1` [2-{[(2-chloro-4-fluorophenyl)methyl]thio}-5-[1-(3,4-dichlorophenyl)-1-methylethyl]-1-(3,4-difluorophenyl)-1H-imidazole], the figure is 100 to 1000 nM; as for `COc1cc(F)ccc1-n1c(C(C)(C)c2ccc(Cl)c(Cl)c2)cnc1SCc1ccc(F)cc1Cl` [2-{[(2-chloro-4-fluorophenyl)methyl]thio}-5-[1-(3,4-dichlorophenyl)-1-methylethyl]-1-[4-fluoro-2-(methyloxy)phenyl]-1H-imidazole], 100 to 1000 nM; as for `COCCNC(=O)c1ccc(CSc2ncc(C(C)(C)c3ccc(Cl)c(Cl)c3)n2-c2ccc(F)cc2)c(F)c1` [4-[({5-[1-(3,4-dichlorophenyl)-1-methylethyl]-1-(4-fluorophenyl)-1H-imidazol-2-yl}thio)methyl]-3-fluoro-N-[2-(methyloxy)ethyl]benzamide], 100 to 1000 nM.
In the case of `CS(=O)(=O)c1ccc(Cc2nnc(SCc3ccc(F)cc3Cl)n2-c2ccc(F)cc2)cc1` [Example 44], the EC50 (HEK 293 hTGR5/CRE-Luc cells, 6 hours incubation, luciferase activity, Table 2, read-out: h-TGR5CRE-Luc EC50 (CRE-Luc)) fell in the range of 1000 to 10000 nM.
Take `CC(C)(c1ccc(Cl)c(Cl)c1)c1cnc(SCc2ccc(F)cc2C(=O)O)n1-c1ccc(F)cc1` [2-[({5-[1-(3,4-dichlorophenyl)-1-methylethyl]-1-(4-fluorophenyl)-1H-imidazol-2-yl}thio)methyl]-5-fluorobenzoic acid]: under setting [1], the EC50 was in the range of 100 to 1000 nM.
On to `CCN(CC)CCOc1cc(-n2c(C(C)(C)c3ccc(Cl)c(Cl)c3)cnc2SCc2c(F)cc(C(=O)O)cc2Cl)ccc1F` [3-chloro-4-[({5-[1-(3,4-dichlorophenyl)-1-methylethyl]-1-(3-{[2-(diethylamino)ethyl]oxy}-4-fluorophenyl)-1H-imidazol-2-yl}thio)methyl]-5-fluorobenzoic acid], for which the EC50 under setting [1] fell in the range of 100 to 1000 nM.
On the same count and under the same terms, for `CC(C)(c1ccc(Cl)c(Cl)c1)c1cnc(SCc2ccc(F)cc2OCC(=O)O)n1-c1ccc(F)cc1` [({2-[({5-[1-(3,4-dichlorophenyl)-1-methylethyl]-1-(4-fluorophenyl)-1H-imidazol-2-yl}thio)methyl]-5-fluorophenyl}oxy)acetic acid] the value was 100 to 1000 nM.
For `CC(C)(O)c1cc(CSc2ncc(C(C)(C)c3ccc(Cl)c(Cl)c3)n2-c2ccc(F)cc2)ccc1F` [2-{5-[({5-[1-(3,4-dichlorophenyl)-1-methylethyl]-1-(4-fluorophenyl)-1H-imidazol-2-yl}thio)methyl]-2-fluorophenyl}propan-2-ol], under setting [1], the EC50 lay in the range of 100 to 1000 nM.
On the same count and under the same terms, as for `CC(C)(c1ccc(Cl)c(OCCN2CCOCC2)c1)c1cnc(SCc2c(F)cccc2Cl)n1-c1ccc(F)cc1` [4-{2-[(2-chloro-5-{1-[2-{[(2-chloro-6-fluorophenyl)methyl]thio}-1-(4-fluorophenyl)-1H-imidazol-5-yl]-1-methylethyl}phenyl)oxy]ethyl}morpholine], the figure is 100 to 1000 nM; as for `Fc1ccc(-n2c(C(F)(F)c3ccc(Cl)c(Cl)c3)cnc2SCc2c(F)cccc2Cl)cc1` [2-{[(2-chloro-6-fluorophenyl)methyl]thio}-5-[(3,4-dichlorophenyl)(difluoro)methyl]-1-(4-fluorophenyl)-1H-imidazole], 1000 to 10000 nM.
For the molecule `COc1ccc(C(C)(C)c2cnc(SCc3ccc(Cl)cc3Cl)n2-c2ccc(F)cc2)cc1OC` [5-{1-[3,4-bis(methyloxy)phenyl]-1-methylethyl}-2-{[(2,4-dichlorophenyl)methyl]thio}-1-(4-fluorophenyl)-1H-imidazole], under setting [1], the concentration giving a half-maximal response (EC50) was less than 100 nM.
On the same count and under the same terms, for `CC(C)(c1ccc(Cl)c(Cl)c1)c1cnc(SCc2ccc(C(N)=O)c(Cl)c2)n1-c1ccc(F)cc1` [2-chloro-4-[({5-[1-(3,4-dichlorophenyl)-1-methylethyl]-1-(4-fluorophenyl)-1H-imidazol-2-yl}thio)methyl]benzamide] the value was 100 to 1000 nM; for `CC(C)(c1ccc(Cl)c(Cl)c1)c1cnc(COc2ccc(Cl)c(S(N)(=O)=O)c2)n1-c1ccc(F)cc1` [2-chloro-5-[({5-[1-(3,4-dichlorophenyl)-1-methylethyl]-1-(4-fluorophenyl)-1H-imidazol-2-yl}methyl)oxy]benzenesulfonamide], 100 to 1000 nM.
`CC(C)(c1ccc(Cl)c(Cl)c1)c1cnc(C(=O)CCc2ccc(Cl)cc2Cl)n1-c1ccc(F)cc1` [3-(2,4-dichlorophenyl)-1-{5-[1-(3,4-dichlorophenyl)-1-methylethyl]-1-(4-fluorophenyl)-1H-imidazol-2-yl}propan-1-one]: the EC50 under setting [1] was 1000 to 10000 nM.
Still for that read-out and setting: for `COc1ccc(C(C)(C)c2cnc(C(=O)NCc3ccc(Cl)c(F)c3)n2-c2ccc(F)cc2)cc1OC` [5-{1-[3,4-bis(methyloxy)phenyl]-1-methylethyl}-N-[(4-chloro-3-fluorophenyl)methyl]-1-(4-fluorophenyl)-1H-imidazole-2-carboxamide] the value was 100 to 1000 nM; for `CC(C)(c1ccc(Cl)c(Cl)c1)c1cnc(COCc2ccc(F)cc2Cl)n1-c1ccc(F)cc1` [2-({[(2-chloro-4-fluorophenyl)methyl]oxy}methyl)-5-[1-(3,4-dichlorophenyl)-1-methylethyl]-1-(4-fluorophenyl)-1H-imidazole], 1000 to 10000 nM.
On to `CC(C)(O)CNC(=O)c1cc(CSc2ncc(C(C)(C)c3ccc(Cl)c(Cl)c3)n2-c2ccc(F)cc2)ccc1F` [5-[({5-[1-(3,4-dichlorophenyl)-1-methylethyl]-1-(4-fluorophenyl)-1H-imidazol-2-yl}thio)methyl]-2-fluoro-N-(2-hydroxy-2-methylpropyl)benzamide], for which the EC50 under setting [1] fell in the range of 100 to 1000 nM.
Same read-out and setting: for `CC(C)(c1ccc(Cl)c(Cl)c1)c1cnc(SCc2ccc(C#N)cc2Cl)n1-c1ccc(F)cc1` [3-chloro-4-[({5-[1-(3,4-dichlorophenyl)-1-methylethyl]-1-(4-fluorophenyl)-1H-imidazol-2-yl}thio)methyl]benzonitrile] the value was 100 to 1000 nM; for `CC(C)(c1ccc(Cl)c(Cl)c1)c1cnc(C2CCN(C(=O)NN3CCCC3)CC2)n1-c1ccc(F)cc1` [4-{5-[1-(3,4-dichlorophenyl)-1-methylethyl]-1-(4-fluorophenyl)-1H-imidazol-2-yl}-N-pyrrolidin-1-ylpiperidine-1-carboxamide], 1000 to 10000 nM.
